The assay deals with GST-Bcl-2. Kind of assay: TR-FRET binding assay, Bcl-2. Conditions: TR-FRET Ki values. The method, boiled down:
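Ki values come from Wang's competitive-binding equation applied to TR-FRET signal (excitation 340/35 nm; emission 520/525 nm F-Bak peptide, 495/510 nm Tb antibody). Protein, probe and antibody incubated with compound 3 h at room temperature; dilution series began at 50 μM as 2× stock in 10% DMSO.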
(In TR-FRET formats the signal depends on donor and acceptor labels being close together.)
In the case of `CC1(C)CCC(CN2CCN(c3ccc(C(=O)NS(=O)(=O)c4ccc(NCCN5CCCCC5=O)c([N+](=O)[O-])c4)c(Oc4ccc5[nH]ccc5c4)c3)CC2)=C(c2ccc(Cl)cc2)C1` [EXAMPLE 267, 4-(4-{[2-(4-chlorophenyl)-4,4-dimethylcyclohex-1-en-1-yl]methyl}piperazin-1-yl)-2-(1H-indol-5-yloxy)-N-[(3-nitro-4-{[2-(2-oxopiperidin-1-yl)ethyl]amino}phenyl)sulfonyl]benzamide], the “Binding selectivity ratio (Bcl-XL Ki/Bcl-2 Ki)” value (“Binding selectivity ratio” below) is above 1453.3.
On to `CN1CCC(Nc2ccc(S(=O)(=O)NC(=O)c3ccc(N4CCN(CC5=C(c6ccc(Cl)cc6)CC(C)(C)CC5)CC4)c(F)c3Oc3ccc4[nH]ccc4c3)cc2[N+](=O)[O-])CC1` [EXAMPLE 184, 4-(4-{[2-(4-chlorophenyl)-4,4-dimethylcyclohex-1-en-1-yl]methyl}piperazin-1-yl)-3-fluoro-2-(1H-indol-5-yloxy)-N-({4-[(1-methylpiperidin-4-yl)amino]-3-nitrophenyl}sulfonyl)benzamide], for which the “Binding selectivity ratio” value is above 2345.3.
Turning to `CC1(C)CCC(CN2CCN(c3ccc(C(=O)NS(=O)(=O)c4ccc(NC[C@H]5CC[C@H](O)CC5)c([N+](=O)[O-])c4)c(Oc4ccc5[nH]ccc5c4)c3)CC2)=C(c2ccc(Cl)cc2)C1` [EXAMPLE 310, Trans-4-(4-{[2-(4-chlorophenyl)-4,4-dimethylcyclohex-1-en-1-yl]methyl}piperazin-1-yl)-N-[(4-{[(4-hydroxycyclohexyl)methyl]amino}-3-nitrophenyl)sulfonyl]-2-(1H-indol-5-yloxy)benzamide], the “Binding selectivity ratio” value is listed as above 13469.4.
Under `CC1(C)CCC(CN2CCN(c3ccc(C(=O)NS(=O)(=O)c4ccc(NCC5(N6CCOCC6)CCCCC5)c([N+](=O)[O-])c4)c(Oc4ccc5[nH]ccc5c4)c3)CC2)=C(c2ccc(Cl)cc2)C1` [EXAMPLE 229, 4-(4-{[2-(4-chlorophenyl)-4,4-dimethylcyclohex-1-en-1-yl]methyl}piperazin-1-yl)-2-(1H-indol-5-yloxy)-N-[(4-{[(1-morpholin-4-ylcyclohexyl)methyl]amino}-3-nitrophenyl)sulfonyl]benzamide] stands above 13.4; under `CN(C)C1(CNc2ccc(S(=O)(=O)NC(=O)c3ccc(N4CCN(CC5=C(c6ccc(Cl)cc6)CC(C)(C)CC5)CC4)cc3Oc3ccc4[nH]ccc4c3)cc2[N+](=O)[O-])CCOCC1` [EXAMPLE 207, 4-(4-{[2-(4-chlorophenyl)-4,4-dimethylcyclohex-1-en-1-yl]methyl}piperazin-1-yl)-N-{[4-({[4-(dimethylamino)tetrahydro-2H-pyran-4-yl]methyl}amino)-3-nitrophenyl]sulfonyl}-2-(1H-indol-5-yloxy)benzamide], above 3021.3; under `CCN(CC)C1CCC(Nc2ccc(S(=O)(=O)NC(=O)c3ccc(N4CCN(CC5=C(c6ccc(Cl)cc6)CC(C)(C)CC5)CC4)cc3Oc3ccc4[nH]ccc4c3)cc2[N+](=O)[O-])CC1` (stereo not shown) [EXAMPLE 201, 4-(4-{[2-(4-chlorophenyl)-4,4-dimethylcyclohex-1-en-1-yl]methyl}piperazin-1-yl)-N-[(4-{[4-(diethylamino)cyclohexyl]amino}-3-nitrophenyl)sulfonyl]-2-(1H-indol-5-yloxy)benzamide], 196.6.
Take `O=C(NS(=O)(=O)c1ccc(NCC2CCOCC2)c([N+](=O)[O-])c1)c1ccc(N2CCN(CC3=C(c4ccc(Cl)cc4)CCC(N4CCCC4)C3)CC2)cc1Oc1ccc2[nH]ccc2c1` (stereo not shown) [EXAMPLE 272, 4-(4-{[2-(4-chlorophenyl)-5-pyrrolidin-1-ylcyclohex-1-en-1-yl]methyl}piperazin-1-yl)-2-(1H-indol-5-yloxy)-N-({3-nitro-4-[(tetrahydro-2H-pyran-4-ylmethyl)amino]phenyl}sulfonyl)benzamide]: the “Binding selectivity ratio” value is recorded as above 58011.8.

These data come from US9125913B2, “Bcl-2-selective apoptosis-inducing agents for the treatment of cancer and immune diseases” (AbbVie Inc., priority 2008, dated 2015).
